# Positions of bridges follow the written chain, without caps; N, C: chain ends. Non-standard residues stand in square brackets, D forms with d. Residues, ends and D or L forms follow the SMILES beside them. Chains are numbered I, II in the order given. pGlu = O=C1CC[C@@H](C(=O)O)N1
# Assay: Compound was evaluated for the production of HSF activity from C6.4 stromal cells using a murine CFU-GM assay.
# Assay type: functional, Mus musculus
row,SMILES,HSF activity x10e2
1,NCCCC[C@H](NC(=O)[C@H](CCCC[C@H](NC(=O)[C@H](CC(=O)O)NC(=O)[C@H](CCC(=O)O)NC(=O)[C@@H]1CCC(=O)N1)C(=O)N[C@@H](CCCCN)C(=O)O)NC(=O)[C@H](CC(=O)O)NC(=O)[C@H](CCC(=O)O)NC(=O)[C@@H]1CCC(=O)N1)C(=O)O [GLASPIMOD],14300 ml
2,NCCCC[C@H](NC(=O)CN(CCCCN(CC(=O)N[C@@H](CCCCN)C(=O)O)C(=O)[C@H](CC(=O)O)NC(=O)[C@H](CCC(=O)O)NC(=O)[C@@H]1CCC(=O)N1)C(=O)[C@H](CC(=O)O)NC(=O)[C@H](CCC(=O)O)NC(=O)[C@@H]1CCC(=O)N1)C(=O)O,21700 ml
3,NCCCC[C@H](NC(=O)[C@H](CSSC[C@H](NC(=O)[C@H](CC(=O)O)NC(=O)[C@H](CCC(=O)O)NC(=O)[C@@H]1CCC(=O)N1)C(=O)N[C@@H](CCCCN)C(=O)O)NC(=O)[C@H](CC(=O)O)NC(=O)[C@H](CCC(=O)O)NC(=O)[C@@H]1CCC(=O)N1)C(=O)O (I: [pGlu]EDCK-OH / II: [pGlu]EDCK-OH; disulfide I:4-II:4),700 ml
